This is an account of results in ChEMBL document CHEMBL4819014, “Design, synthesis and biological evaluation of imidazole and triazole-based carbamates as novel aromatase inhibitors” (Eur J Med Chem, 2021).

The target of one data set is T1, CYP19A (aromatase) (Homo sapiens, UniProt P11511).
T1 sequence (P11511 whole entry): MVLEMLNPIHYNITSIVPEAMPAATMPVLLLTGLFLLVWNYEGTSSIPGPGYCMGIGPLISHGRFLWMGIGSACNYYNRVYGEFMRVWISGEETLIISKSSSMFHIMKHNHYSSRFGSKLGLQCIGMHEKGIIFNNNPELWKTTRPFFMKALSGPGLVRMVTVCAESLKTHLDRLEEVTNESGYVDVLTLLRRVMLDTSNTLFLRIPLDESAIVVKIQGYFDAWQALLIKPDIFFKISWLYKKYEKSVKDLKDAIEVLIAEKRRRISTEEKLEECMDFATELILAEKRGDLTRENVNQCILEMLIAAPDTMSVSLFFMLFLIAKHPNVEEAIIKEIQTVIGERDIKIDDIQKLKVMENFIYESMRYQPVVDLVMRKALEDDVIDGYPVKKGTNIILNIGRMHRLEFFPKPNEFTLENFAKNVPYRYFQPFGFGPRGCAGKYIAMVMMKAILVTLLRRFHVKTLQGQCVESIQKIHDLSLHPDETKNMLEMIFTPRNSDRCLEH
In words: Inhibition of human CYP19A at 1 uM measured every 1 min for 60 mins by flourimetric assay.

Data set [1] relates to MCF7. In words: Cytotoxicity against human MCF7 cells assessed as metabolic activity at 10 uM measured after 72 hrs by MTT assay. The class given is functional.
Data set [2] concerns MCF7. The experiment in a line: Cytotoxicity against human MCF7 cells assessed as metabolic activity at 25 uM measured after 72 hrs by MTT assay. It counts as functional. (Formazan colour is commonly taken as a measure of viable cells.)
Data set [3] relates to MCF7. The experiment in a line: Cytotoxicity against human MCF7 cells assessed as metabolic activity at 10 uM measured after 24 hrs by MTT assay. The class given is functional.
The test system of data set [4] is MCF7. The experiment in a line: Cytotoxicity against human MCF7 cells assessed as metabolic activity at 100 uM measured after 48 hrs by MTT assay. It counts as functional.
The subject of data set [5] is MCF7. In words: Cytotoxicity against human MCF7 cells assessed as lactate dehydrogenase activity at 250 uM measured after 24 hrs by microplate reader method relative to control. It counts as functional.
Data set [6] concerns MCF7. The experiment in a line: Cytotoxicity against human MCF7 cells assessed as metabolic activity at 50 uM measured after 72 hrs by MTT assay. The class given is functional.
Data set [7] relates to MCF7. The experiment in a line: Induction of cell cycle arrest in human MCF7 cells assessed as accumulation of cells in S phase measured after 24 hrs by PI staining based flow cytometry method. It counts as functional. To be noted: dose 10-250 µM. (Flow cytometry measures light scatter and fluorescence of single cells or particles in a stream.)
Data set [8] concerns MCF7. In words: Cytotoxicity against human MCF7 cells assessed as metabolic activity at 250 uM measured after 48 hrs by MTT assay. It counts as functional.
The next data set addresses T2, Aromatase (Homo sapiens, UniProt P11511).
T2 sequence (P11511 whole entry): T1 sequence (P11511 whole entry)
In words: Inhibition of human CYP19A measured every 1 min for 60 mins by flourimetric assay.

Data set [9] has as its system MCF7. In words: Cytotoxicity against human MCF7 cells assessed as lactate dehydrogenase activity measured after 24 hrs by microplate reader method relative to control. It counts as functional.
Data set [10] has as its system MCF7. In words: Induction of cell cycle arrest in human MCF7 cells assessed as decrease in accumulation of cells in G1 phase at 100 to 250 uM measured after 24 hrs by PI staining based flow cytometry method. The class given is functional. To be noted: dose 100-250 µM.
Data set [11] has as its system MCF7. In words: Cytotoxicity against human MCF7 cells assessed as metabolic activity measured after 48 hrs by MTT assay. The class given is functional, cell-based. To be noted: dose 10-250 µM.
The test system of data set [12] is MCF7. In words: Cytotoxicity against human MCF7 cells assessed as metabolic activity at 10 to 250 uM measured after 24 hrs by MTT assay. It counts as functional. To be noted: dose 10-250 µM.
Data set [13] concerns MCF7. In words: Induction of cell cycle arrest in human MCF7 cells assessed as accumulation of cells in G2/M phase at 100 to 250 uM measured after 24 hrs by PI staining based flow cytometry method. To be noted: dose 100-250 µM. It counts as functional.

pIC50: −log10 of the molar value. Active and inactive are the calls of the source. The rule behind the calls is not given here.

One may read the inhibition as how much of the control response was suppressed. The pIC50 is the IC50 on a negative log10 scale, so that one unit is a factor of ten. A high value points to a small IC50.

`O=C(Nc1ccc(Cl)cc1)OC(Cn1ccnc1)c1ccccc1` (stereo not drawn) registered an inhibition at 1 h, 1 µM on CYP19A (aromatase) of 62%.

Turning to `COc1ccc(NC(=O)OC(COc2ccccc2)Cn2ccnc2)c(OC)c1` (stereo not drawn), the inhibition at 1 h, 1 µM against CYP19A (aromatase) was 25%.

In the case of `O=C(NCc1ccccc1)OC(Cn1ccnc1)c1ccccc1` (stereo not drawn), the Activity in the data set with MCF7 [1] was 50.16%; in the data set on MCF7 [2] it was 55.06%; with MCF7 [3] it was 43.67%; in the data set with MCF7 [4], 10.39%; with MCF7 [6] it was 46.7%; with MCF7 [7] it was “Dose-Dependent Effect”. Also, the Activity in the data set with MCF7 [8] turned out to be 30.75%. Moreover, at CYP19A (aromatase), the inhibition at 1 h, 1 µM is 81%. The “fold change (FC)” value was 4.8 in the data set with MCF7 [5] and 4 in the data set with MCF7 [9]. Moreover, the pIC50 against Aromatase is 6.09.

On CYP19A (aromatase), `O=C(Nc1ccccc1)OC(COc1ccc(Cl)cc1)Cn1cncn1` (stereo not drawn) registered an inhibition at 1 h, 1 µM of 46%.

Compound `O=C(Nc1ccccc1)OC(Cn1ccnc1)c1ccccc1` (stereo not drawn) returned an inhibition at 1 h, 1 µM against CYP19A (aromatase) of 61%.

`O=C(Nc1ccccc1)OC(COc1ccccc1)Cn1ccnc1` (stereo not drawn) gave an inhibition at 1 h, 1 µM against CYP19A (aromatase) of 27%.

In the case of `COc1ccc(NC(=O)OC(COc2ccccc2)Cn2ccnc2)cc1` (stereo not drawn), the inhibition at 1 h, 1 µM against CYP19A (aromatase) was 61%.

The compound `COc1ccc(OCC(Cn2cncn2)OC(=O)Nc2ccc(Cl)cc2)cc1` (stereo not drawn) showed an inhibition at 1 h, 1 µM against CYP19A (aromatase) of 49%.

Take `O=C(Nc1ccc(Cl)cc1)OC(COc1ccccc1)Cn1ccnc1` (stereo not drawn): the result in the data set on MCF7 [10] and in the data set on MCF7 [13] was Active. Moreover, the Activity entry is “Dose-Dependent Effect” with MCF7 [11], 50% with MCF7 [12], 25.18% with MCF7 [6] and “Dose-Dependent Effect” in the data set with MCF7 [7]. The inhibition at 1 h, 1 µM at CYP19A (aromatase) came to 72%. For the same compound, the “fold change (FC)” value turned out to be 4.8 in the data set with MCF7 [5] and 4 in the data set with MCF7 [9]. Further, at Aromatase, the negative logarithm of the IC50 (pIC50) is 6.07.
